# Measured values taken from patent publication US20250154172A1, “PRMT5 INHIBITORS AND USES THEREOF” (Gilead Sciences, Inc., priority 2023, published 2025).
# System: HCT116 MTAP-deleted cell lines
# Assay: Cell viability assay for HCT116 isogenic pair (CellTitre-Glo, 7 days)
# Format: cell-based
# Details: Homo sapiens, HCT-116, 168 h, 7 days of treatment, cell line not given
# Procedure: Control compounds were analyzed in parallel each time for quality control.
# In Brief, on Day −1, a serial dilution of stock compounds in DMSO was performed using BioMek liquid handlers and dispensed using Echo acoustic dispenser into 384 well plates. Both tool compounds and sample compounds were spotted in the same plate for a dose response of PRMT5 inhibitors. Compound plates were stored as frozen until the cells were ready for seeding.
# On Day 0, 100 HCT WT or HCT116 MTAP-deleted cells were seeded in compound-containing 384 well plates (50 μl per well) in RPMI 1640 media supplemented with 10% heat inactivated fetal bovine serum, Glutamax and penicillin streptomycin using EL460 liquid dispenser 5 μl cassette (BioTek, part no. 7170011). After equilibrating the plate in room temperature, the cells were incubated for 7 days inside the sealed incubator set at 37° C. with 90% humidity and 5% CO2.
# On Day 7, the viability of cells was measured using a CTG assay kit (CellTitre-Glo; Promega cat no. G7573). Shortly, 40 μl per well of luminescent cell viability assay reagent were dispensed using EL460 liquid dispenser 5 μl cassette. CTG luminescence signal was measured using an EnVision plate reader (PerkinElmer) in accordance with manufacturer's instruction. The CCso values for each compound after 7 days of treatment were calculated using 4 parameter non-linear logistical curve fit.
# For the cell viability assay ie CC50 shown in nM in Table 3.
row,Structure (SMILES),CC50 [nM]
1,"Cn1ncc2c(N)nc3cnc(C(=O)N4CCC[C@@H]5Oc6cc(OC(F)(F)F)ccc6[C@@H]54)cc3c21 [Example Ca-6, (4-amino-1-methyl-1H-pyrazolo[4,3-c][1,7]naphthyridin-8-yl)((4aS,9bS)-7-(trifluoromethoxy)-3,4,4a,9b-tetrahydrobenzofuro[3,2-b]pyridin-1(2H)-yl)methanone]",8
2,"Cn1ncc2c(N)nc3cnc(C(=O)N4CCC[C@@H]5Cc6cc(C(F)(F)F)ccc6[C@@H]54)cc3c21 (racemic) [Example Ca-24, (Rac)-(4-amino-1-methyl-1H-pyrazolo[4,3-c][1,7]naphthyridin-8-yl)((4aR,9bR)-7-(trifluoromethyl)-2,3,4,4a,5,9b-hexahydro-1H-indeno[1,2-b]pyridin-1-yl)methanone]",42
3,"CN(C(=O)c1cc2c(cn1)nc(N)c1cnn(C)c12)[C@@H]1c2ccc(C(F)(F)F)cc2[C@H]2C[C@H]21 (single isomer, unassigned) [Example Ca-27]",88
4,"Cn1ncc2c(N)nc3ccc(C(=O)N4CC[C@@H]5Oc6cc(C(F)(F)F)ccc6[C@@H]54)cc3c21 (racemic) [Example Ca-55, Rac-(4-amino-1-methyl-1H-pyrazolo[4,3-c]quinolin-8-yl)((3aS,8bS)-6-(trifluoromethyl)-2,3,3a,8b-tetrahydro-1H-benzofuro[3,2-b]pyrrol-1-yl)methanone]",106
5,"Cn1ncc2c(N)nc3ccc(C(=O)N4CCC[C@@H]5Oc6cc(C(F)(F)F)ccc6[C@@H]54)cc3c21 [Example Ca-5, (4-amino-1-methyl-1H-pyrazolo[4,3-c]quinolin-8-yl)((4aS,9bS)-7-(trifluoromethyl)-3,4,4a,9b-tetrahydrobenzofuro[3,2-b]pyridin-1(2H)-yl)methanone]",8
6,"Cn1ncc2c(N)nc3cc(Cl)c(C(=O)N4CCC[C@H]5Oc6cc(C(F)(F)F)ccc6[C@H]54)cc3c21 (stereo in doubt) [Example Ca-3, (4-amino-7-chloro-1-methyl-1H-pyrazolo[4,3-c]quinolin-8-yl)((4aR,9bR)-7-(trifluoromethyl)-3,4,4a,9b-tetrahydrobenzofuro[3,2-b]pyridin-1(2H)-yl)methanone]",5
7,"C[C@@H]1CN(C(=O)c2cc3c(cn2)nc(N)c2cnn(C)c23)[C@H]2c3ccc(Br)c(F)c3C[C@H]2O1 (single isomer, unassigned) [Example Ca-30]",75
8,"Nc1nc2cnc(C(=O)N3CC[C@H]4C[C@@H]3c3c(Cl)cc(C(F)(F)F)cc3O4)cc2c2c1COC2 [Example Ca-60, (4-amino-1,3-dihydrofuro[3,4-c][1,7]naphthyridin-8-yl)((2S,6R)-7-chloro-9-(trifluoromethyl)-3,4-dihydro-2H-2,6-methanobenzo[b][1,5]oxazocin-5(6H)-yl)methanone]",227
9,"Cn1ncc2c(N)nc3ccc(C(=O)N4CCCC5OCc6cc(C(F)(F)F)ccc6C54)cc3c21 (centres unmarked) [Example Ca-9, (4-amino-1-methyl-1H-pyrazolo[4,3-c]quinolin-8-yl)(8-(trifluoromethyl)-2,3,4,4a,6,10b-hexahydro-1H-isochromeno[4,3-b]pyridin-1-yl)methanone]",56
10,"[2H]C1([2H])CC[C@@H]2Oc3cc(C(F)(F)F)ccc3[C@@H]2N1C(=O)c1cc2c3c(c(N)nc2cn1)COC3 [Example Ca-48, (4-amino-1,3-dihydrofuro[3,4-c][1,7]naphthyridin-8-yl)((4aS,9bS)-7-(trifluoromethyl)-3,4,4a,9b-tetrahydrobenzofuro[3,2-b]pyridin-1(2H)-yl-2,2-d2)methanone]",12
11,"COc1ccc2c(c1)CO[C@H]1CCCN(C(=O)c3ccc4nc(N)c5cnn(C)c5c4c3)[C@@H]21 (racemic) [Example Ca-8, Rac-(4-amino-1-methyl-1H-pyrazolo[4,3-c]quinolin-8-yl)((4aS,10bS)-8-methoxy-2,3,4,4a,6,10b-hexahydro-1H-isochromeno[4,3-b]pyridin-1-yl)methanone]",23
